Results as given in paper PMC7614683, “A small molecule PI3Kα activator for cardioprotection and neuroregeneration” (Nature, 2023).

Key:
Assay in all cases: SelectScreen LanthaScreen Binding
Settings in all cases: 1000 nM
DMPK = target: T1, DMPK (Homo sapiens, UniProt Q09013)
T1 sequence (Q09013 1-629): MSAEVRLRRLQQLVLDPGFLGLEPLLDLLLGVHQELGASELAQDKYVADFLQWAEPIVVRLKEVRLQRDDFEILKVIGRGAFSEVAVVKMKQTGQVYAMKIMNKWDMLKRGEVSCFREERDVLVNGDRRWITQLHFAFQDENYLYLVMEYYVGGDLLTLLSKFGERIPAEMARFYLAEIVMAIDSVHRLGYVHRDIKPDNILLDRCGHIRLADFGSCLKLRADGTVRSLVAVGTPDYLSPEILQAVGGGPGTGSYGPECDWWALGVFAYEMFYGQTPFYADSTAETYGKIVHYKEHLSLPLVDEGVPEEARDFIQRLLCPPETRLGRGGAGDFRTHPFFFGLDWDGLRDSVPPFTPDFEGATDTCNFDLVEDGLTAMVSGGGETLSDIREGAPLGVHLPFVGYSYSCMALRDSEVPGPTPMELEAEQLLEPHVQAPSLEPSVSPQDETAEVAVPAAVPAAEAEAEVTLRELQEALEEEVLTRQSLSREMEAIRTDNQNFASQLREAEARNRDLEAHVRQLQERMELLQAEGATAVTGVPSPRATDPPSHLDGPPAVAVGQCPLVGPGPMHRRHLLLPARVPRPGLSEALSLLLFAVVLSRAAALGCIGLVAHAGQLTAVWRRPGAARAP
Method: (§1) 133 protein kinases and 7 lipid kinases were counterscreened, with 1938 used at 1 μM, using the Adapta, Lantha and Z-LYTE assays (SelectScreen Kinase Profiling Service; Thermofisher – experimental details of these assays can be found here: https://www.thermofisher.com/uk/en/home/industrial/pharma-biopharma/drug-discovery-development/target-and-lead-identification-and-validation/kinasebiology/kinase-activity-assays.html. The tree represention in KinMap[59] generated courtesy of Cell Signaling Technology, Inc. (www.cellsignal.com). mTORC1 (mTOR/RAPTOR/LST8) protein complex and ATM kinase and substrates were produced as previously described[57],[60]. Screening of 1938 was conducted using SuperSep Phos-Tag 50 μmol/l 100 x 100 x 6.6 mm 17-well (192-18001/199-18011) gels. For ATM assays, 100 nM ATM was incubated for 30 min at 30°C with 5 μM GST-p53 and 1 mM ATP, in the absence or presence of 200 μM 1938 in ATM Kinase Buffer (50 mM HEPES pH 7.5, 100 mM NaCl, 10% glycerol, 2 mM […], 5 mM MgCl2). As a positive control for ATM activation, the same reaction was carried out with 100 nM ATM/5 μM GST-p53/1 mM ATP in the presence of 100 nM Mre11-Rad50-Nbs1 (MRN) complex, a known activator of ATM[61]. For mTORC1 assays, 50 nM mTORC1 complex (mTOR/LST8/RAPTOR) was incubated for 3 h at 30°C with 15 μM 4E-BP1, 10 mM MgCl2 and 250 μM ATP, in the absence or presence of 200 μM 1938. As a ‘positive’ control, a higher concentration (150 nM) of mTORC1 complex (mTOR/LST8/RAPTOR) was incubated for 3 h at 30°C with 15 μM 4E-BP1, 10 mM MgCl2 and 250 μM ATP. Kinase reactions were quenched by addition of SDS-PAGE Loading Buffer (as per manufacturer’s instructions) and freezing at -20°C before being run on the Phos-tag gels at 150 V for 90 min. Gels were then stained using InstantBlue™ Coomassie, and quantified using BioRad Image Lab Software. Kinase assays were carried out in triplicate.

[1] = target: T2, MAP3K7/MAP3K7IP1 (TAK1-TAB1) (Homo sapiens, UniProt O43318)
T2 sequence (O43318 with tags, fused parts or gaps limits assumed): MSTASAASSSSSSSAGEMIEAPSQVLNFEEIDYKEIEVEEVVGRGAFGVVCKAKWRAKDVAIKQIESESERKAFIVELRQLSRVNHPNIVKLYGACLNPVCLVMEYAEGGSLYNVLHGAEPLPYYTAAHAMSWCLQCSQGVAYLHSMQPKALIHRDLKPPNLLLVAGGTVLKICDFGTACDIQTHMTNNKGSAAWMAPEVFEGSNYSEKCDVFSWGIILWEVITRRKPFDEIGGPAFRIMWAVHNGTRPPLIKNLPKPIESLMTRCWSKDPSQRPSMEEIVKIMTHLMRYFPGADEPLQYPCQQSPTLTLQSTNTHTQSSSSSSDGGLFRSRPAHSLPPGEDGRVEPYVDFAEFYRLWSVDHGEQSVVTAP
Method: as §1

MAP4K1 (HPK1) = MAP4K1 (HPK1) (Homo sapiens, UniProt Q92918)
Chain of MAP4K1 (HPK1) (Q92918 whole entry): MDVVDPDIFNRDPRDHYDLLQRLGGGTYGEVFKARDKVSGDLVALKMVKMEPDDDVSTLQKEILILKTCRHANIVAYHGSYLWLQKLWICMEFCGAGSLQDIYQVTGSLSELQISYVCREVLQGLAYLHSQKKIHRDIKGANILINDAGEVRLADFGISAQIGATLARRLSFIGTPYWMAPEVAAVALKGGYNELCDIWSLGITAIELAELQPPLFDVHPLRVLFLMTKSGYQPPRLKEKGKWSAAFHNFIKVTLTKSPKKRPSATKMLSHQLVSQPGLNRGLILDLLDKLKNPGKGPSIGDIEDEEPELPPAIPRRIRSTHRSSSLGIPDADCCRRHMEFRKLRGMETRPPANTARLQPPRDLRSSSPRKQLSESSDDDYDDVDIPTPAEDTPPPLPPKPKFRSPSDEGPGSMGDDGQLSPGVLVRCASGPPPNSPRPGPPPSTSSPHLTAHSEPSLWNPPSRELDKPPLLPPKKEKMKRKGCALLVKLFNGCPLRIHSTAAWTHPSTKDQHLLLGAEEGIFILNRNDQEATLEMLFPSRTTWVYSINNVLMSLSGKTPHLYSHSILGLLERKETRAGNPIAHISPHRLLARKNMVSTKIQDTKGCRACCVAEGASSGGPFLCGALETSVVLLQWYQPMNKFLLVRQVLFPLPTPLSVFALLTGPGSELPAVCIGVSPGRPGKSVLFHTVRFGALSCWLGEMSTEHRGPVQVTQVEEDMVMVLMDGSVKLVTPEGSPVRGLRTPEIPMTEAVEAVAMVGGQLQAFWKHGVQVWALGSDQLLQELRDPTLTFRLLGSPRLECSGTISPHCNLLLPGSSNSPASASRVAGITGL
Method: as §1

MYLK (MLCK) = MYLK (MLCK) (Homo sapiens, UniProt Q15746)
Chain of MYLK (MLCK) (Q15746 whole entry): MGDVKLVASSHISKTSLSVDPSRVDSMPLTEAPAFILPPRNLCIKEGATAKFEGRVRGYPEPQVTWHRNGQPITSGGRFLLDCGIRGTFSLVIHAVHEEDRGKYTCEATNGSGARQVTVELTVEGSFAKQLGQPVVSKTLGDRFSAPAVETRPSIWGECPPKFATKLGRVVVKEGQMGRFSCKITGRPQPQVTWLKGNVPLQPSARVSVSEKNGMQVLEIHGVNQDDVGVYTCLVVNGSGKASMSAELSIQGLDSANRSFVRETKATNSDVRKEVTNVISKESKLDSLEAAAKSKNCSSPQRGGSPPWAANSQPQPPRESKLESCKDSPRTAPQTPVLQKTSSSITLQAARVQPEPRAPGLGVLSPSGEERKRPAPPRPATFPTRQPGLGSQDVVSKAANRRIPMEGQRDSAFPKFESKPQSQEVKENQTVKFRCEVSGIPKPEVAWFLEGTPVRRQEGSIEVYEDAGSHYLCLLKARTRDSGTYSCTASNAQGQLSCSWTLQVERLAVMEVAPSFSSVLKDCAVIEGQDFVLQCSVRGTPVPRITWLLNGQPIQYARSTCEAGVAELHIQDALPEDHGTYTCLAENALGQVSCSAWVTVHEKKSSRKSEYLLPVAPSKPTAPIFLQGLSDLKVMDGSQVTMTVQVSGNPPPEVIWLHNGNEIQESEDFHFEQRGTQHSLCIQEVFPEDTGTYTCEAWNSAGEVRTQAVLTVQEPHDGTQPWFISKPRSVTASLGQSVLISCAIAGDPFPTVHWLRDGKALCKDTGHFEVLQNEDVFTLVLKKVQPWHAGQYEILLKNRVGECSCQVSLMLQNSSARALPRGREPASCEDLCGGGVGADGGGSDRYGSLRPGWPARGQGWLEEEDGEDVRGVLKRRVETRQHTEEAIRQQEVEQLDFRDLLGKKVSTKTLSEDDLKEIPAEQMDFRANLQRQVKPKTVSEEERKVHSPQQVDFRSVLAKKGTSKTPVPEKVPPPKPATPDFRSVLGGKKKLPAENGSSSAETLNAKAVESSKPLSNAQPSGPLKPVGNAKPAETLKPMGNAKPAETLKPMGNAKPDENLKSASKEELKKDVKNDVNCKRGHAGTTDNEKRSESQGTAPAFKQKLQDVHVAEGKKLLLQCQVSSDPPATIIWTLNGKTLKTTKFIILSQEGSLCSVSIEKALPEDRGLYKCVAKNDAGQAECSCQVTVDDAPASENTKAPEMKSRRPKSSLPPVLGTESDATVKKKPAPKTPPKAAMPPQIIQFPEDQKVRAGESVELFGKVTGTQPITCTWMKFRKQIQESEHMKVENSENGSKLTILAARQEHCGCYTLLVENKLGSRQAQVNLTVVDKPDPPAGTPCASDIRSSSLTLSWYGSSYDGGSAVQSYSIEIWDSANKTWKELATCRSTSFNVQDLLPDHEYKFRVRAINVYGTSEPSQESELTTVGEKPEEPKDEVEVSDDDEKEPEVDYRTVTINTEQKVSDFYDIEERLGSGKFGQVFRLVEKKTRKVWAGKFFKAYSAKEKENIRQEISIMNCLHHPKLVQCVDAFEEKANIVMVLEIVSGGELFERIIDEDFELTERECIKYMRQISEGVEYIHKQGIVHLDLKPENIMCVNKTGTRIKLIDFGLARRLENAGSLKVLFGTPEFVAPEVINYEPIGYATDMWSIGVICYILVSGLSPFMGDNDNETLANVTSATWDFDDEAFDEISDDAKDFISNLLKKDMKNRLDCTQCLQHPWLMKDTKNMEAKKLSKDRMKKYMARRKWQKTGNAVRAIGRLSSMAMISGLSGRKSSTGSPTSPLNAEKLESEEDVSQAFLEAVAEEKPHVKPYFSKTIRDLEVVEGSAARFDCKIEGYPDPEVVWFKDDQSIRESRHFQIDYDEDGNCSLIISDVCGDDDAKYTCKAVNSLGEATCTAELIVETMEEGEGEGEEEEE
Method: as §1

CCN1CCN(c2ccc(Nc3cc(Nc4cccc5c4N(C(C)=O)CC5)ccn3)cc2)CC1 [Compound 1938]
% Displacement Point 1 (DMPK): 4.22%
% Displacement Point 2 (DMPK): 0.782%
% Displacement mean (DMPK): 2.5%
% Displacement Point 1 [1]: 1%
% Displacement Point 2 [1]: -0.557%
% Displacement mean [1]: 0.201%
% Displacement Point 1 (MAP4K1 (HPK1)): -3.25%
% Displacement Point 2 (MAP4K1 (HPK1)): 6.64%
% Displacement mean (MAP4K1 (HPK1)): 1.7%
% Displacement Point 1 (MYLK (MLCK)): 1.85%
% Displacement Point 2 (MYLK (MLCK)): 2.24%
% Displacement mean (MYLK (MLCK)): 2%
